Assays:
[1] = tested on: synaptosomes (SV retrieval from the plasma membrane); assay: FM2-10 SV internalisation assay (purified SVs from synaptosomes); assay type: cell-based, rat
Description: (§1) Loading of FM2-10 (Molecular Probes) into recycling synaptosomal SVs was measured as previously described. Data is presented as Ca^2+-dependent FM2-10 unloading, which is the difference between release after loading in plus and minus Ca^2+ solutions. Where indicated, synaptosomes were preincubated with penetratin peptide for 30 min prior to stimulation of FM2-10 loading. […] The same assay was used to monitor the effect of penetratin peptide on SV exocytosis. However, in this instance, the synaptosomes were loaded with FM2-10 in plus Ca^2+ Krebs-like solution and, where indicated, were preincubated with penetratin peptide for 30 min prior to stimulation of FM2-10 unloading. Data is presented as Ca^2+-dependent FM2-10 unloading. The SV internalisation assay was performed as previously described.
If SVE was arrested before SV fission occurred, […]. SVs were purified and their fluorescence values were corrected for dye uptake in the absence of Ca^2+ (Ca^2+-dependent) and normalised to control (n=3, mean ±s.e.m.).

[2] = tested on: synaptosomes (SV exocytosis); assay: FM2-10 unloading (SV exocytosis) assay in synaptosomes; assay type: cell-based, rat; conditions: evoked by 30 mM KCl; peptide preincubated 30 min before unloading
Description: as §1
A block in SV turnover cannot be ascribed to an inhibition of SVE until an effect on exocytosis has been excluded. Two independent exocytosis assays were conducted to assess this: endogenous glutamate release and FM2-10 unloading. […] Finally, the extent of SVE inhibition by the peptides was quantified by calculating “retrieval efficiency” which takes into account prior exocytosis; a value of less than one indicating a selective SVE inhibition. […]

[3] = tested on: synaptosomes (SV exocytosis); assay: KCl-evoked Ca2+-dependent glutamate release assay in synaptosomes; assay type: cell-based, rat; conditions: peptide preincubated 30 min; KCl stimulation
Description: (§2) In all SV recycling studies synaptosomes were prepared from rat cerebral cortex by centrifugation on discontinuous percoll gradients (Dunkley et al. 1986). The glutamate release assay was performed as described before (Cousin and Robinson 2000a). Data is presented as Ca^2+-dependent glutamate release, calculated as the difference between release in plus and minus Ca^2+ solutions. Penetratin peptides (Genemed Synthesis) were preincubated with the synaptosomes for 30 min before stimulation and had no effect on Ca^2+-independent release of glutamate.
A block in SV turnover cannot be ascribed to an inhibition of SVE until an effect on exocytosis has been excluded. Two independent exocytosis assays were conducted to assess this: endogenous glutamate release and FM2-10 unloading. Neither the DynI769-784AA nor DynI769-784EE peptide had any significant effect on KCl-evoked Ca^2+-dependent glutamate release (DynI769-784AA […]±8.4% of control; DynI769-784EE […]±9.5% of control, FIG. 5c). Both peptides had small effects on FM2-10 unloading evoked by 30 mM KCl (DynI769-784AA −81.1±0.8% of control; DynI769-784EE −82.3±0.6% of control, FIG. 5d). Finally, the extent of SVE inhibition by the peptides was quantified by calculating “retrieval efficiency” which takes into account prior exocytosis; a value of less than one indicating a selective SVE inhibition. […]

[4] = tested on: U2OS cells; assay: Transferrin (Tfn) endocytosis (RME) in U2OS cells; assay type: cell-based; conditions: 15 min peptide preincubation at various concentrations, Tfn 15 min at 37° C.
Description: Briefly, non-neuronal U2OS cells were preincubated with vehicle only or each peptide at various concentrations for 15 min. Cells were then incubated with Tfn for 15 min at 37° C., acid washed, fixed and internalized Tfn was detected by fluorescence microscopy. Quantitative analysis of endocytosis in the presence of different concentrations of the peptides is shown as mean fluorescence as a percent of fluorescence in control cells. The results shown in FIG. 11 are representative of 2 independent experiments. Endocytosis in control cells (no peptide) is expressed as 100%.

[5] = tested on: synaptosomes (synaptic vesicle turnover); assay: SV turnover assay (FM2-10 loading/unloading) in synaptosomes; assay type: cell-based, rat
Description: as §2, §1
SVE in synaptosomes was measured to determine whether the phosphorylation sites in dynamin I play a direct role in SVE. Since isolated nerve terminals cannot be transfected with DNA, a membrane-permeable peptide strategy was employed. Mimetic peptides (DynI769-784AA (SEQ ID No. 8) and DynI769-784EE (SEQ ID No. 9)) were designed corresponding to the amino acid sequence of the dynamin I phospho-box (FIG. 5a) and were tagged with a penetratin heptapeptide RRMKWKK (SEQ ID No. 12) to facilitate their delivery into synaptosomes. Briefly, synaptosomes were preincubated in the presence or absence of either penetratin peptide (250 μM) prior to FM2-10 loading stimulated by 30 mM KCl. Accumulated FM2-10 was unloaded by another KCl stimulus (indicated by the solid bar). […] If the phosphorylation-regulated syndapin I interaction itself is essential for SVE, the penetratin-linked peptides may inhibit the process. […] The DynI769-784AA peptide (250 μM) inhibited turnover by more than 40% (57.1±2.1% of control), compared to less than 20% with the DynI769-784EE peptide (250 μM, 81.1±2.4% of control).

[6] = tested on: p85 (the regulatory subunit of PI-3 kinase); assay: GST-DynI-PRD pull-down with peptide competition: p85; assay type: binding, rat; conditions: increasing amounts of peptide
Description: (§3) Total rat brain extract was prepared by homogenising brain tissue in ice-cold lysis buffer (1% Triton X-100, 150 mM NaCl, 25 mM Tris pH 7.4, 1 mM EDTA, 1 mM EGTA, 20 μg/ml leupeptin, 1 mM phenylmethylsulfonyl fluoride and EDTA-free Complete protease inhibitor (Roche)). The homogenate was centrifuged twice at 75,600 g for 30 min at 4° C. The supernatant was pre-cleared by addition of GSH-sepharose beads for 1 h, pelleted at 50 g for 5 min at 4° C., and the supernatant collected. GST-DynI-PRD recombinant proteins were then incubated with an equal amount of tissue lysate at 4° C. for 1 h. Beads were washed extensively with ice-cold 20 mM Tris pH 7.4 containing 1 mM EGTA, eluted in 2×SDS-PAGE sample buffer, resolved on 7.5-15% gradient SDS gels and stained with colloidal Coomassie Blue. Identification of proteins was by matrix-assisted laser desorption ionization time-of-flight mass spectrometry (MALDI-TOF MS). Some peptides were sequenced by tandem MS/MS.
(§4) A common characteristic of most binding sites for SH3 domains is the presence of the core amino acid motif PxxP, which is often followed or preceded by a basic Arg residue. There are 13 such motifs in the dynamin I PRD (numbered from site 1 at the N-terminus of the PRD at Pro-753 in dynamin I). […]

[7] = target: T1, endophilin I binding to DynI-PRD (Rattus norvegicus, UniProt O35179); assay: GST-DynI-PRD pull-down with peptide competition: endophilin I; conditions: increasing amounts of peptide
T1 construct: from tissue; host or cells: target from total rat brain extract; GST-DynI-PRD made in house in Escherichia coli
Description: as §3, §4

[8] = target: T2, amphiphysin I binding to DynI-PRD (Rattus norvegicus, UniProt O08838); assay: GST-DynI-PRD pull-down with peptide competition: amphiphysin I
T2 construct: it is full-length amphiphysin I being detected in the present study; from tissue; host or cells: target from total rat brain extract; GST-DynI-PRD made in house in Escherichia coli
T2 sequence (O08838 1-683): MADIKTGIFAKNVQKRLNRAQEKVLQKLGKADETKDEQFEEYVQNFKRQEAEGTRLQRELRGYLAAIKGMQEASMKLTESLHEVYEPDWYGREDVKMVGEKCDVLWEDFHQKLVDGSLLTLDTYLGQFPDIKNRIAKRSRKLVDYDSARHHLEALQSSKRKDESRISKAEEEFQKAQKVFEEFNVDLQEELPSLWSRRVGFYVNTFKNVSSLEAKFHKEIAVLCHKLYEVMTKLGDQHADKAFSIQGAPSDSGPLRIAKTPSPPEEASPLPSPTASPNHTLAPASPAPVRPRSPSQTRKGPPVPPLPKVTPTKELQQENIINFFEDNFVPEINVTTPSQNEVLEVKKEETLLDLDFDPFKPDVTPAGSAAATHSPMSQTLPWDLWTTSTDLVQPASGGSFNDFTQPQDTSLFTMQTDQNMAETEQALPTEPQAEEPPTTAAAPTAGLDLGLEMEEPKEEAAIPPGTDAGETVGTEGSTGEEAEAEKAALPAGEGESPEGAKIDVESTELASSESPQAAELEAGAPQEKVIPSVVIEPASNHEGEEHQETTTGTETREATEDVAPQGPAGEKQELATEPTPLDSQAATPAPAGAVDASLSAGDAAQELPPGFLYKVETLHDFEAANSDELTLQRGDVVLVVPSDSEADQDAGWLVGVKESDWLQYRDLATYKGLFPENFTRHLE
Description: as §3
A common characteristic of most binding sites for SH3 domains is the presence of the core amino acid motif PxxP, which is often followed or preceded by a basic Arg residue. […]
The binding site of amphiphysin I has previously been mapped to a single site, site 9 (FIG. 8), within the dynamin I-PRD (Grabs et al. 1997; Vallis et al. 1999). […] However, it is full-length amphiphysin I being detected in the present study. […]

[9] = target: T3, Syndapin I binding to DynI-PRD (Rattus norvegicus, UniProt Q9Z0W5); assay: GST-DynI-PRD pull-down from rat brain lysate with peptide competition: syndapin I; conditions: increasing amounts of peptide
T3 construct: from tissue; host or cells: target from total rat brain extract; GST-DynI-PRD made in house in Escherichia coli
Description: as §3, §4

T1 sequence (O35179 whole entry): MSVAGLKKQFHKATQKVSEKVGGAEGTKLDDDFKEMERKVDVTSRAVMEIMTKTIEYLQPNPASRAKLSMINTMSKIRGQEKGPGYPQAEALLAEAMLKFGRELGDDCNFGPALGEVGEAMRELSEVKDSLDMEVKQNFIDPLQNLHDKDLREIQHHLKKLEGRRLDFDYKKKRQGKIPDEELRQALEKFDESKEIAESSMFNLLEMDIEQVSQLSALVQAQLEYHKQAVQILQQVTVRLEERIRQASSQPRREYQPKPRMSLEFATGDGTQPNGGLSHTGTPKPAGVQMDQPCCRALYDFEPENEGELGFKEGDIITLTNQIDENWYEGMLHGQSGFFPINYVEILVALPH
T3 sequence (Q9Z0W5 whole entry): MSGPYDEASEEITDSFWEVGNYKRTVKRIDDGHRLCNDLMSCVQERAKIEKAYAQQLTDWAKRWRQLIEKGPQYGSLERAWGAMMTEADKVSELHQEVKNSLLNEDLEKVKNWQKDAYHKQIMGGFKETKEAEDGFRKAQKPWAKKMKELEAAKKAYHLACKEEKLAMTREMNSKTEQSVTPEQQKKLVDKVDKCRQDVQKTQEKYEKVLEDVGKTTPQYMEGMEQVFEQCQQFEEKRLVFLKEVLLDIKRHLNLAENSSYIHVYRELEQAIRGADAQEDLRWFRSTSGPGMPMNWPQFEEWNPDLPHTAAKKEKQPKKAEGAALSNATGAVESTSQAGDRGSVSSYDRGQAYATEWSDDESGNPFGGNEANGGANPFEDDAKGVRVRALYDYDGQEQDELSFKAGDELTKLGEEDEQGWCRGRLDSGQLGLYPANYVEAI

Row | effect on binding to p85 [6] | inhibitory effect on endophilin I binding (relative to syndapin I) [7] | peptide concentration needed to inhibit amphiphysin I binding, relative [8] | effect on amphiphysin I binding ([8]; later judged a non-specific artefact of Arg/Pro-rich peptide) | Substance | inhibition of FM2-10 accumulation in SVs [1] | FM2-10 accumulation in purified SVs (Ca2+-dependent) ([1]; n=3, mean ± s.e.m.) | FM2-10 unloading [2] | KCl-evoked Ca2+-dependent glutamate release [3] | endocytosis of transferrin (Tfn), RME [4] | inhibition of SV turnover ([5]; peptide 250 μM) | SV turnover ([5]; peptide 250 μM, 30 min preincubation, FM2-10 loading with 30 mM KCl) | retrieval efficiency (SV turnover/exocytosis) ([5]; using data from either exocytosis assay, value below one = selective SVE inhibition) | Syndapin I binding to DynI-PRD [9]
1 | – | – | – | – | DynI769-784EE: Dynamin I phospho-box mimetic peptide (residues 769-784), EE mutant, tagged with penetratin heptapeptide RRMKWKK (RRMKWKKPAGRREPTSEPTPQRR; listed as Rattus norvegicus) | no significant effect | 90.7±7.1 % of control | 82.3±0.6 % of control | 90.2±9.5 % of control | without effect | less than 20% | 81.1±2.4 % of control | little effect | –
2 | little effect | five-fold weaker inhibitory effect | 10 times higher peptide concentrations | inhibitory effect | RRAPAVPPARPGSR (listed as Rattus norvegicus) [DynI783-796, Peptide corresponding to site 2 and site 3 region of dynamin I PRD] | – | – | – | – | – | – | – | – | greatly reduced in a concentration-dependent manner
